Experimental data: patent US8680159B2, “Bradykinin 1 receptor modulating compounds” (Gruenenthal GmbH, priority 2010, dated 2014)

molecular target: T1, human B1R receptor (CHO K1 cells stably transfected with the human B1R gene) (Homo sapiens, UniProt P46663); assay: Functional study on the bradykinin receptor 1 (B1R), Ca2+ fluorescence (Fluo-4) FLIPR/Novostar assay, hB1R cells; assay type: cell-based; details: CHO-K1, read-out: % Inhibition (h-B1R) at 10 μM
T1 construct: expressed in transfected cells; host or cells: CHO K1 cells (Chinese hamster ovary), stably transfected
T1 sequence (P46663 1-353): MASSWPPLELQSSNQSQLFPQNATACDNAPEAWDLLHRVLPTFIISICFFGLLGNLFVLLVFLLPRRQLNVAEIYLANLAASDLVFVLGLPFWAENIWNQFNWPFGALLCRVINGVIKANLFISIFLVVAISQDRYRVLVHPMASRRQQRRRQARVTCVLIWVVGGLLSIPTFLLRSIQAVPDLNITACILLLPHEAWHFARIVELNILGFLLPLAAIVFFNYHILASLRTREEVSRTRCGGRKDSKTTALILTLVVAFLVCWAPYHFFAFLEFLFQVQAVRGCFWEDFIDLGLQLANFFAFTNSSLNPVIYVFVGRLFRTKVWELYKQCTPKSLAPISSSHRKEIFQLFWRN
Outline: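 Test compounds (10 μM) were added first and the Ca2+ rise was scored as % activation against Lys-Des-Arg9-bradykinin (≥50 nM, human) or Des-Arg9-bradykinin (≥1 μM, rat). After 6-20 min, the matching agonist was given at its EC80, and % inhibition relative to maximal achievable inhibition was calculated.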

| inhibition at 10 µM [%] | Compound |
| --- | --- |
| 100 | Cc1cc(N2CCC(N(C)C(=O)c3ccc4c(c3)C(NC(=O)C3CCCCC3)CC4)CC2)cc(C)n1 (centres unmarked) [CC_H-123, 3-(Cyclohexanecarbonylamino)-N-[1-(2,6-dimethyl-pyridin-4-yl)-piperidin-4-yl]-N-methyl-2,3-dihydro-1H-indene-5-carboxylic acid amide] |
| 68 | CN(C(=O)c1ccc2c(c1)C(NC(=O)c1cncnc1)CCO2)C1CCN(c2ccncc2)CC1 (centres unmarked) [CC_H-124, N-[6-[Methyl-(1-pyridin-4-yl-piperidin-4-yl)-carbamoyl]-3,4-dihydro-2H-chromen-4-yl]-pyrimidine-5-carboxylic acid amide] |
| 100 | CN(C(=O)c1ccc2c(c1)C(NS(=O)(=O)Cc1ccccc1C(F)(F)F)CCC2)C1CCN(c2ccncc2)CC1 (centres unmarked) [CC_H-125, N-Methyl-N-(1-pyridin-4-yl-piperidin-4-yl)-8-[[[2-(trifluoromethyl)-phenyl]-methylsulfonyl]amino]-5,6,7,8-tetrahydro-naphthalene-2-carboxylic acid amide] |
| 100 | CN(C(=O)NC1CCc2cc(C(=O)N(C)C3CCN(c4ccncc4)CC3)ccc21)c1ccccc1Cl (centres unmarked) [CC_H-126, 1-[[(2-Chlorophenyl)-methyl-carbamoyl]amino]-N-methyl-N-(1-pyridin-4-yl-piperidin-4-yl)-2,3-dihydro-1H-indene-5-carboxylic acid amide] |
| 95 | CN(C(=O)c1ccc2c(c1)CCC2NC(=O)c1c(Cl)cccc1C(F)(F)F)C1CCN(c2ccncc2)CC1 (centres unmarked) [CC_H-127, 1-[[2-Chloro-6-(trifluoromethyl)-benzoyl]amino]-N-methyl-N-(1-pyridin-4-yl-piperidin-4-yl)-2,3-dihydro-1H-indene-5-carboxylic acid amide] |
| 99 | O=C(NCCC1CCN(c2ccncc2)CC1)c1ccc2c(c1)C(NS(=O)(=O)Cc1ccccc1C(F)(F)F)CC2 (centres unmarked) [CC_H-128, N-[2-(1-Pyridin-4-yl-piperidin-4-yl)-ethyl]-3-[[[2-(trifluoromethyl)-phenyl]-methylsulfonyl]amino]-2,3-dihydro-1H-indene-5-carboxylic acid amide] |
| 100 | Cc1cc(N2CCC(N(C)C(=O)c3ccc4c(c3)C(N(C)S(=O)(=O)Cc3ccccc3C(F)(F)F)CC4)CC2)cc(C)n1 (centres unmarked) [CC_H-129, N-[1-(2,6-Dimethyl-pyridin-4-yl)-piperidin-4-yl]-N-methyl-3-[methyl-[[2-(trifluoromethyl)-phenyl]-methylsulfonyl]-amino]-2,3-dihydro-1H-indene-5-carboxylic acid amide] |
| 81 | CN(C(=O)c1ccc2c(c1)C(NC(=O)c1cncnc1)CC2)C1CCN(c2ccc3cnccc3c2)CC1 (centres unmarked) [CC_H-130, N-[6-[(1-Isoquinolin-6-yl-piperidin-4-yl)-methyl-carbamoyl]-2,3-dihydro-1H-inden-1-yl]-pyrimidine-5-carboxylic acid amide] |
| 99 | Cc1cc(N2CCC(N(C)C(=O)c3ccc4c(c3)C(NC(=O)C(C)(C)c3ccccc3Cl)CC4)CC2)cc(C)n1 (centres unmarked) [CC_H-131, 3-[[2-(2-Chlorophenyl)-2-methyl-propanoyl]amino]-N-[1-(2,6-dimethyl-pyridin-4-yl)-piperidin-4-yl]-N-methyl-2,3-dihydro-1H-indene-5-carboxylic acid amide] |
| 99 | CC(C)CC(=O)NC1CCc2ccc(C(=O)NCCC3CCN(c4ccncc4)CC3)cc21 (centres unmarked) [CC_H-132, 3-(3-Methyl-butanoylamino)-N-[2-(1-pyridin-4-yl-piperidin-4-yl)-ethyl]-2,3-dihydro-1H-indene-5-carboxylic acid amide] |
| 90 | Cc1cccc(C)c1C(=O)NC1CCc2ccc(C(=O)N(C)C3CCN(c4ccc5cnccc5c4)CC3)cc21 (centres unmarked) [CC_H-133, 3-[(2,6-Dimethyl-benzoyl)amino]-N-(1-isoquinolin-6-yl-piperidin-4-yl)-N-methyl-2,3-dihydro-1H-indene-5-carboxylic acid amide] |
| 100 | Cc1cc(N2CCC(N(C)C(=O)c3ccc4c(c3)C(N(C)S(=O)(=O)c3c(Cl)cccc3C(F)(F)F)CC4)CC2)cc(C)n1 (centres unmarked) [CC_H-134, 3-[[[2-Chloro-6-(trifluoromethyl)-phenyl]sulfonyl]-methyl-amino]-N-[1-(2,6-dimethyl-pyridin-4-yl)-piperidin-4-yl]-N-methyl-2,3-dihydro-1H-indene-5-carboxylic acid amide] |
| 100 | CC(C)CC(=O)NC1CCCc2ccc(C(=O)N(C)C3CCN(c4ccncc4)CC3)cc21 (centres unmarked) [CC_H-135, N-Methyl-8-(3-methyl-butanoylamino)-N-(1-pyridin-4-yl-piperidin-4-yl)-5,6,7,8-tetrahydro-naphthalene-2-carboxylic acid amide] |
| 100 | O=C(NCCC1CCN(c2ccncc2)CC1)c1ccc2c(c1)C(NC(=O)c1c(Cl)cccc1C(F)(F)F)CC2 (centres unmarked) [CC_H-136, 3-[[2-Chloro-6-(trifluoromethyl)-benzoyl]amino]-N-[2-(1-pyridin-4-yl-piperidin-4-yl)-ethyl]-2,3-dihydro-1H-indene-5-carboxylic acid amide] |
| 96 | CN(C(=O)c1ccc2c(c1)C(NC(=O)c1c(Cl)cccc1C(F)(F)F)CC2)C1CCN(c2ccncc2)CC1 (centres unmarked) [CC_H-137, 3-[[2-Chloro-6-(trifluoromethyl)-benzoyl]amino]-N-methyl-N-(1-pyridin-4-yl-piperidin-4-yl)-2,3-dihydro-1H-indene-5-carboxylic acid amide] |
| 98 | Cc1cccc(C)c1C(=O)NC1CCc2ccc(C(=O)N(C)C3CCN(c4ccncc4)CC3)cc21 (centres unmarked) [CC_H-138, 3-[(2,6-Dimethyl-benzoyl)amino]-N-methyl-N-(1-pyridin-4-yl-piperidin-4-yl)-2,3-dihydro-1H-indene-5-carboxylic acid amide] |
| 98 | CN(C(=O)c1ccc2c(c1)C(NC(=O)C(C)(C)c1ccccc1Cl)CC2)C1CCN(c2ccncc2)CC1 (centres unmarked) [CC_H-139, 3-[[2-(2-Chlorophenyl)-2-methyl-propanoyl]amino]-N-methyl-N-(1-pyridin-4-yl-piperidin-4-yl)-2,3-dihydro-1H-indene-5-carboxylic acid amide] |
| 100 | CN(C(=O)c1ccc2c(c1)C(NC(=O)C1CCCCC1)CC2)C1CCN(c2ccncc2)CC1 (centres unmarked) [CC_H-140, 3-(Cyclohexanecarbonylamino)-N-methyl-N-(1-pyridin-4-yl-piperidin-4-yl)-2,3-dihydro-1H-indene-5-carboxylic acid amide] |
| 100 | CN(C(=O)c1ccc2c(c1)C(NS(=O)(=O)Cc1ccccc1C(F)(F)F)CC2)C1CCN(c2ccncc2)CC1 (centres unmarked) [CC_H-141, N-Methyl-N-(1-pyridin-4-yl-piperidin-4-yl)-3-[[[2-(trifluoromethyl)-phenyl]-methylsulfonyl]amino]-2,3-dihydro-1H-indene-5-carboxylic acid amide] |
| 100 | Cc1cc(N2CCC(N(C)C(=O)c3ccc4c(c3)C(NC(=O)N(C)c3ccccc3Cl)CC4)CC2)cc(C)n1 (centres unmarked) [CC_H-142, 3-[[(2-Chlorophenyl)-methyl-carbamoyl]amino]-N-[1-(2,6-dimethyl-pyridin-4-yl)-piperidin-4-yl]-N-methyl-2,3-dihydro-1H-indene-5-carboxylic acid amide] |
| 100 | CN(C(=O)c1ccc2c(c1)CCC2NS(=O)(=O)c1c(Cl)cccc1C(F)(F)F)C1CCN(c2ccncc2)CC1 (centres unmarked) [CC_H-143, 1-[[[2-Chloro-6-(trifluoromethyl)-phenyl]sulfonyl]amino]-N-methyl-N-(1-pyridin-4-yl-piperidin-4-yl)-2,3-dihydro-1H-indene-5-carboxylic acid amide] |

same assay, conditions: CHO-K1, read-out: % inhibition (human B1R) at 10 μM

| inhibition at 10 µM [%] | Compound |
| --- | --- |
| 65 | Cc1cc(N2CCC(N(C)C(=O)c3ccc4c(c3)[C@H](N(C(=O)c3ccccc3C)C(C)C)CC4)CC2)nc(C)n1 [Example H-172, (3R)-N-[1-(2,6-Dimethyl-pyrimidin-4-yl)-piperidin-4-yl]-3-[isopropyl-(2-methyl-benzoyl)-amino]-N-methyl-2,3-dihydro-1H-indene-5-carboxylic acid amide] |
| 100 | CCN(C(=O)c1cccnc1C(F)(F)F)[C@@H]1CCc2ccc(C(=O)N(C)C3CCN(c4cc(C)nc(C)n4)CC3)cc21 [Example H-174, N-[(1R)-6-[[1-(2,6-Dimethyl-pyrimidin-4-yl)-piperidin-4-yl]-methyl-carbamoyl]-2,3-dihydro-1H-inden-1-yl]-N-ethyl-2-(trifluoromethyl)-pyridine-3-carboxylic acid amide] |
| 97 | Cc1cc(N2CCC(N(C)C(=O)c3ccc4c(c3)[C@H](N(C)C(=O)c3c(F)cccc3Cl)CC4)CC2)nc(C)n1 [Example H-175, (3R)-3-[(2-Chloro-6-fluoro-benzoyl)-methyl-amino]-N-[1-(2,6 dimethyl-pyrimidin-4-yl)-piperidin-4-yl]-N-methyl-2,3-dihydro-1H-indene-5-carboxylic acid amide] |
| 97 | CCN(C(=O)c1c(F)cccc1Cl)[C@@H]1CCc2ccc(C(=O)N(C)C3CCN(c4cc(C)nc(C)n4)CC3)cc21 [Example H-176] |
| 100 | CN(C(=O)c1ccc2c(c1)[C@H](N(C)C(=O)CCC1CCCC1)CC2)C1CCN(c2ccncc2F)CC1 [Example H-188, (3R)-3-(3-Cyclopentyl-propanoyl-methyl-amino)-N-[1-(3-fluoro-pyridin-4-yl)-piperidin-4-yl]-N-methyl-2,3-dihydro-1H-indene-5-carboxylic acid amide] |
